Measured values published in patent US10039747B2, “Tetrahydrocyclopentapyrrole derivatives and a method for preparing the same” (Daewoong Pharmaceutical Co., Ltd., priority 2013, dated 2018).

Target: T1, H+/K+-ATPase (Sus scrofa, UniProt P19156)
T1 construct: reaction buffer solution (60 mmol/l Tris-HCl buffer solution, pH 7.4) containing hog gastric vesicle; from tissue; host or cells: hog stomach (gastric vesicles, by centrifugation after Rabon et al. 1988)
Test: Inhibition of proton pump (H+/K+-ATPase) activity in hog gastric vesicles
Format: biochemical
Conditions: K+ specific H+/K+-ATPase activity, pH 7.4, 37° C. for 40 minutes, malachite green
Method: 1) Preparation of Gastric Vesicles
Gastric vesicles were prepared from hog stomach by centrifugation (Edd C. Rabon et al., Preparation of Gastric H^+,K^+-ATPase, Methods in enzymology, vol. 157 Academic Press Inc., (1988), pp. 649-654). The protein contents of the prepared gastric vesicles were quantified with a Bicinchoninic Acid (BCA) kit.
2) Measurement of Effect of Inhibiting Proton Pump (H^+/K^+-ATPase) Activity
The effect of inhibiting proton pump activity by the compound of the present invention was measured in a 96-well plate. In this experiment, K^+ specific H^+/K^+-ATPase activity was calculated based on the difference between H^+/K^+-ATPase activity in the presence of K^+ ions and H^+/K^+-ATPase activity in the absence of K^+ ions. In the 96-well plate, to negative and positive control groups, 0.5% dimethylsulfoxide (DMSO) in buffer was added, and to the test groups, the compound of the present invention was added. All the analyses were conducted at room temperature with the reaction volume of 100 μl. To a reaction buffer solution (60 mmol/l Tris-HCl buffer solution, pH 7.4) containing hog gastric vesicle, DMSO and each concentration of compound were added, and then, 10 μl of a 10 mmol/l adenosine triphosphate tris buffer solution (60 mmol/l Tris-HCl buffer solution, pH 7.4) was added to initiate an enzyme reaction. The enzyme reaction was conducted at 37° C. for 40 minutes, 50 μl of a malachite green solution (0.12% malachite green solution, 5.8% ammonium molybdate and 11% tween 20 were mixed at a ratio of 100:67:2 in 6.2 N sulfuric acid) was added to stop the reaction, and 50 μl of 15.1% sodium citrate was added. During the reaction, the amount of monophosphate (Pi) was measured at 570 nm using micro plate reader (FLUOstar Omega, BMG Company). Inhibition rate (%) was measured from the activity values of the control groups and the activity values of various concentrations of the test compound, and IC50 of the test compound was calculated from each % inhibition value of the compound using Logistic 4-parameter function of Sigmaplot 8.0 program.

T1 sequence (P19156 2-1034 limits assumed): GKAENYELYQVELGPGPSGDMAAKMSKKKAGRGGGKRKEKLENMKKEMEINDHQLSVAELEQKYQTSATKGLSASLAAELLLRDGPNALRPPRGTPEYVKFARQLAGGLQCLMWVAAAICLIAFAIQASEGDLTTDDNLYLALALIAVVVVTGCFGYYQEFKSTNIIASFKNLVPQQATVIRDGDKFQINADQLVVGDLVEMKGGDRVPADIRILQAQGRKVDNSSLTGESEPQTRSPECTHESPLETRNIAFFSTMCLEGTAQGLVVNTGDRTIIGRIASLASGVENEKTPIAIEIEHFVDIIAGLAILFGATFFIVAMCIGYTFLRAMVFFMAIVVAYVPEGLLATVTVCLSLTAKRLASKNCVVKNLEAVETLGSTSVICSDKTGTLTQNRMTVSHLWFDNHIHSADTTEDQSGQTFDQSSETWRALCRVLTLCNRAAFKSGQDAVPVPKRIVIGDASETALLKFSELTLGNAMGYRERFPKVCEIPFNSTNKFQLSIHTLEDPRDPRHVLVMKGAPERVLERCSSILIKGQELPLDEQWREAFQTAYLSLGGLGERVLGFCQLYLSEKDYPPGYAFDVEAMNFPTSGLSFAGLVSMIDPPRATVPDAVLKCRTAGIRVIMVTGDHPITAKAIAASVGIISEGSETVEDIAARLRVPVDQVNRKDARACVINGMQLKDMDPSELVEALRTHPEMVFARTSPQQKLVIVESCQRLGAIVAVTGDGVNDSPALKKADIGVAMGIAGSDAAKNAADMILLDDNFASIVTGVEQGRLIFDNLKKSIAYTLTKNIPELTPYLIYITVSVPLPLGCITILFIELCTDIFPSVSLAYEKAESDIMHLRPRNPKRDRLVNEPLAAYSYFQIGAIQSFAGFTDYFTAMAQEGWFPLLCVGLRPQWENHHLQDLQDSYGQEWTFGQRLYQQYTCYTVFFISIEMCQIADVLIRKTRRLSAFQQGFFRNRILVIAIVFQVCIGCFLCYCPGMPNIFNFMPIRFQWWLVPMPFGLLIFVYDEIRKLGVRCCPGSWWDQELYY
T1 sequence (P18434 whole entry partner): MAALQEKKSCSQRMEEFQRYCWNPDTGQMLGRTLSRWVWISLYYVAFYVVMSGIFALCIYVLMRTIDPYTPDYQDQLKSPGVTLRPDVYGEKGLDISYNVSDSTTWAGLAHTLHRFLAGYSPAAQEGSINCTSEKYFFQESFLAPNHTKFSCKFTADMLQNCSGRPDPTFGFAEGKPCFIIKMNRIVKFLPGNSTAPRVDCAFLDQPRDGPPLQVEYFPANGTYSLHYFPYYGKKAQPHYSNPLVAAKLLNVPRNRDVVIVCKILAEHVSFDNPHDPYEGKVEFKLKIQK

IC50 [nM] | Structure (SMILES)
940 | CNC1CCc2c1cn(S(=O)(=O)c1ccc(F)cc1F)c2-c1ccccc1F (stereo not drawn) [Example 65, 2-((2,4-difluorophenyl)sulfonyl)-1-(2-fluorophenyl)-N-methyl-2,4,5,6-tetrahydrocyclopenta[c]pyrrol-4-amine]
500 | CNC1CCc2c1cn(S(=O)(=O)c1ccc(F)cc1Cl)c2-c1ccccc1F (stereo not drawn) [Example 66, 2-((2-chloro-4-fluorophenyl)sulfonyl)-1-(2-fluorophenyl)-N-methyl-2,4,5,6-tetrahydrocyclopenta[c]pyrrol-4-amine]
1260 | CNC1CCc2c1cn(S(=O)(=O)c1ccc(C#N)cc1Cl)c2-c1ccccc1F (stereo not drawn) [Example 67, 3-chloro-4-((1-(2-fluorophenyl)-4-(methylamino)-5,6-dihydrocyclopenta[c]pyrrol-2(4H)-yl)sulfonyl)benzonitrile]
840 | CNC1CCc2c1cn(S(=O)(=O)c1ccc(OC(F)(F)F)cc1Cl)c2-c1ccccc1F (stereo not drawn) [Example 68, 2-((2-chloro-4-(trifluoromethoxy)phenyl)sulfonyl)-1-(2-fluorophenyl)-N-methyl-2,4,5,6-tetrahydrocyclopenta[c]pyrrol-4-amine]
1620 | CNC1CCc2c1cn(S(=O)(=O)c1ccc(C(F)(F)F)cc1Cl)c2-c1ccccc1F (stereo not drawn) [Example 69, 2-((2-chloro-4-(trifluoromethyl)phenyl)sulfonyl)-1-(2-fluorophenyl)-N-methyl-2,4,5,6-tetrahydrocyclopenta[c]pyrrol-4-amine]
430 | CNC1CCc2c1cn(S(=O)(=O)c1cc(Cl)ccc1Cl)c2-c1ccccc1F (stereo not drawn) [Example 70, 2-((2,5-dichlorophenyl)sulfonyl)-1-(2-fluorophenyl)-N-methyl-2,4,5,6-tetrahydrocyclopenta[c]pyrrol-4-amine]
670 | CNC1CCc2c1cn(S(=O)(=O)c1cc(Cl)ccc1Cl)c2-c1ccc(F)cc1F (stereo not drawn) [Example 71, 2-((2,5-dichlorophenyl)sulfonyl)-1-(2,4-difluorophenyl)-N-methyl-2,4,5,6-tetrahydrocyclopenta[c]pyrrol-4-amine]
480 | CNC1CCc2c1cn(S(=O)(=O)c1cc(Cl)ccc1Cl)c2-c1ccc(C)cc1F (stereo not drawn) [Example 72, 2-((2,5-dichlorophenyl)sulfonyl)-1-(2-fluoro-4-methylphenyl)-N-methyl-2,4,5,6-tetrahydrocyclopenta[c]pyrrol-4-amine]
670 | CNC1CCc2c1cn(S(=O)(=O)c1cc(Cl)ccc1Cl)c2-c1cc(Cl)ccc1Cl (stereo not drawn) [Example 73, 1-(2,5-dichlorophenyl)-2-((2,5-dichlorophenyl)sulfonyl)-N-methyl-2,4,5,6-tetrahydrocyclopenta[c]pyrrol-4-amine]
520 | CNC1CCc2c1cn(S(=O)(=O)c1cc(C(F)(F)F)ccc1Cl)c2-c1ccccc1F (stereo not drawn) [Example 74, 2-((2-chloro-5-(trifluoromethyl)phenyl)sulfonyl)-1-(2-fluorophenyl)-N-methyl-2,4,5,6-tetrahydrocyclopenta[c]pyrrol-4-amine]
2140 | CNC1CCc2c1cn(S(=O)(=O)c1c(Cl)cccc1Cl)c2-c1ccccc1F (stereo not drawn) [Example 75, 2-((2,6-dichlorophenyl)sulfonyl)-1-(2-fluorophenyl)-N-methyl-2,4,5,6-tetrahydrocyclopenta[c]pyrrol-4-amine]
490 | CNC1CCc2c1cn(S(=O)(=O)c1ccc(Cl)c(Cl)c1)c2-c1ccccc1F (stereo not drawn) [Example 76, 2-((3,4-dichlorophenyl)sulfonyl)-1-(2-fluorophenyl)-N-methyl-2,4,5,6-tetrahydrocyclopenta[c]pyrrol-4-amine]
410 | CNC1CCc2c1cn(S(=O)(=O)c1cc(Cl)cc(Cl)c1)c2-c1ccccc1F (stereo not drawn) [Example 77, 2-((3,5-dichlorophenyl)sulfonyl)-1-(2-fluorophenyl)-N-methyl-2,4,5,6-tetrahydrocyclopenta[c]pyrrol-4-amine]
460 | CNC1CCc2c1cn(S(=O)(=O)c1cc(Cl)cc(Cl)c1)c2-c1ccc(C)cc1F (stereo not drawn) [Example 78, 2-((3,5-dichlorophenyl)sulfonyl)-1-(2-fluoro-4-methylphenyl)-N-methyl-2,4,5,6-tetrahydrocyclopenta[c]pyrrol-4-amine]
770 | CNC1CCc2c1cn(S(=O)(=O)c1cc(Cl)cc(Cl)c1)c2-c1cc(Cl)ccc1Cl (stereo not drawn) [Example 79, 1-(2,5-dichlorophenyl)-2-((3,5-dichlorophenyl)sulfonyl)-N-methyl-2,4,5,6-tetrahydrocyclopenta[c]pyrrol-4-amine]
620 | CNC1CCc2c1cn(S(=O)(=O)c1ccc(Cl)c(Cl)c1Cl)c2-c1ccccc1F (stereo not drawn) [Example 80, 1-(2-fluorophenyl)-N-methyl-2-((2,3,4-trichlorophenyl)sulfonyl)-2,4,5,6-tetrahydrocyclopenta[c]pyrrol-4-amine]
1140 | CNC1CCc2c1cn(S(=O)(=O)c1cc(Cl)c(Cl)cc1Cl)c2-c1ccccc1 (stereo not drawn) [Example 81, N-methyl-1-phenyl-2-((2,4,5-trichlorophenyl)sulfonyl)-2,4,5,6-tetrahydrocyclopenta[c]pyrrol-4-amine]
660 | CNC1CCc2c1cn(S(=O)(=O)c1cc(Cl)c(Cl)cc1Cl)c2-c1ccc(C)cc1F (stereo not drawn) [Example 82, 1-(2-fluoro-4-methylphenyl)-N-methyl-2-((2,4,5-trichlorophenyl)sulfonyl)-2,4,5,6-tetrahydrocyclopenta[c]pyrrol-4-amine]
980 | CNC1CCc2c1cn(S(=O)(=O)c1cc(Cl)c(Cl)cc1Cl)c2-c1cc(Cl)ccc1Cl (stereo not drawn) [Example 83, 1-(2,5-dichlorophenyl)-N-methyl-2-((2,4,5-trichlorophenyl)sulfonyl)-2,4,5,6-tetrahydrocyclopenta[c]pyrrol-4-amine]
390 | CNC1CCc2c1cn(S(=O)(=O)c1cc(Cl)c(Cl)cc1Cl)c2-c1ccccc1F (stereo not drawn) [Example 84, 1-(2-fluorophenyl)-N-methyl-2-((2,4,5-trichlorophenyl)sulfonyl)-2,4,5,6-tetrahydrocyclopenta[c]pyrrol-4-amine]
2190 | CNC1CCc2c1cn(S(=O)(=O)c1c(Cl)cc(Cl)cc1Cl)c2-c1ccccc1F (stereo not drawn) [Example 85, 1-(2-fluorophenyl)-N-methyl-2-((2,4,6-trichlorophenyl)sulfonyl)-2,4,5,6-tetrahydrocyclopenta[c]pyrrol-4-amine]
5950 | CNC1CCc2c1cn(S(=O)(=O)c1c(Cl)cc(C(F)(F)F)cc1Cl)c2-c1ccccc1F (stereo not drawn) [Example 86, 2-((2,6-dichloro-4-(trifluoromethyl)phenyl)sulfonyl)-1-(2-fluorophenyl)-N-methyl-2,4,5,6-tetrahydrocyclopenta[c]pyrrol-4-amine]
1440 | CNC1CCc2c1cn(S(=O)(=O)c1cccs1)c2-c1ccccc1F (stereo not drawn) [Example 87, 1-(2-fluorophenyl)-N-methyl-2-(thiophen-2-ylsulfonyl)-2,4,5,6-tetrahydrocyclopenta[c]pyrrol-4-amine]
510 | CNC1CCc2c1cn(S(=O)(=O)c1cccnc1)c2-c1ccccc1F (stereo not drawn) [Example 88, 1-(2-fluorophenyl)-N-methyl-2-(pyridin-3-ylsulfonyl)-2,4,5,6-tetrahydrocyclopenta[c]pyrrol-4-amine]
1190 | CNC1CCc2c1cn(S(=O)(=O)c1cccnc1)c2-c1ccccc1Cl (stereo not drawn) [Example 89, 1-(2-chlorophenyl)-N-methyl-2-(pyridin-3-ylsulfonyl)-2,4,5,6-tetrahydrocyclopenta[c]pyrrol-4-amine]
520 | CNC1CCc2c1cn(S(=O)(=O)c1cccnc1)c2-c1ccc(C)cc1F (stereo not drawn) [Example 90, 1-(2-fluoro-4-methylphenyl)-N-methyl-2-(pyridin-3-ylsulfonyl)-2,4,5,6-tetrahydrocyclopenta[c]pyrrol-4-amine]
690 | CNC1CCc2c1cn(S(=O)(=O)c1cccnc1)c2-c1ccc(Cl)cc1F (stereo not drawn) [Example 91, 1-(4-chloro-2-fluorophenyl)-N-methyl-2-(pyridin-3-ylsulfonyl)-2,4,5,6-tetrahydrocyclopenta[c]pyrrol-4-amine]
350 | CNC1CCc2c1cn(S(=O)(=O)c1cccnc1)c2-c1cc(Cl)ccc1Cl (stereo not drawn) [Example 92, 1-(2,5-dichlorophenyl)-N-methyl-2-(pyridin-3-ylsulfonyl)-2,4,5,6-tetrahydrocyclopenta[c]pyrrol-4-amine]
340 | CNC1CCc2c1cn(S(=O)(=O)c1cccnc1)c2-c1cc(Cl)cc(C)c1F (stereo not drawn) [Example 93, 1-(5-chloro-2-fluoro-3-methylphenyl)-N-methyl-2-(pyridin-3-ylsulfonyl)-2,4,5,6-tetrahydrocyclopenta[c]pyrrol-4-amine]
470 | CNC1CCc2c1cn(S(=O)(=O)c1cccnc1)c2-c1ccsc1 (stereo not drawn) [Example 94, N-methyl-2-(pyridin-3-ylsulfonyl)-1-(thiophen-3-yl)-2,4,5,6-tetrahydrocyclopenta[c]pyrrol-4-amine]
